Laboratory results reported in patent US9428536B2, “Immunostimulatory G, U-containing oligoribonucleotides” (Zoetis Belgium SA, priority 2002, dated 2016).
Oligonucleotides are written 5' to 3', each unit as a sugar letter and its base; * is a phosphorothioate linkage, no mark a phosphodiester; rarer units and linkages stand in square brackets, end groups in braces. Plain capitals give the bases only. d = 2'-deoxy (DNA); r = 2'-OH (RNA)

How the values were obtained:
[1] = system: wild type murine macrophages; test: Wild type murine macrophages in the presence of IFN-γ, IL-12 p40 ELISA; assay type: cell-based, mouse; conditions: FIG. 6 Panel A, 12 hours, RNA with DOTAP
Method: The following murine cells were isolated and incubated with various RNAs and other known TLR ligands in order to assess species-, cell type-, and signaling pathway-specificity: wild type macrophages in the presence of IFN-γ; MyD88-deficient macrophages in the presence of IFN-γ; J774 (mouse macrophage cell line); and RAW 264.7 (mouse macrophage cell line, e.g., ATCC TIB-71). Murine bone macrophages were generated from wild type or MyD88-deficient C57BL/6 mice by culturing bone marrow cells with 50 ng/ml M-CSF for 5 days. Cells were seeded at 25,000 cells/well and treated with 20 ng/ml IFN-γ for 16 hours. The murine macrophage cell lines RAW and J774 were seeded at 10,000 cells/well.
The following test and control agents were examined: R-848 (2 μg/ml), ODN 1668 (CpG DNA; 5′-[…]-3′; SEQ ID NO:7); LPS (1 μg/ml); poly IC (50 μg/ml); Pam3Cys (5 μg/ml); Ionomycin/TPA; the following RNA molecules, each with (“+Lipo”) and without DOTAP (10 μg/200 μl culture well): GUGUUUAC alone (RNA1); GUAGGCAC alone (RNA2); GUGUUUAC in combination with GUAGGCAC (RNA1/2); […] (RNA6; SEQ ID NO:8); […] (RNA9; SEQ ID NO:9); and the following DNA molecules, corresponding to RNA1, RNA2, and RNA1/2: GTGTTTAC alone (DNA1); GTAGGCAC alone (DNA2); and GTGTTTAC in combination with GTAGGCAC (DNA1/2). These RNA and DNA oligonucleotides each contained a phosphorothioate linkage between the penultimate and 3′ terminal nucleoside. RNA6 and RNA9 each contained in addition a phosphorothioate linkage between the penultimate and 5′ terminal nucleoside. RNA6 corresponds to a ribosomal RNA stem loop derived from Listeria monocytogenes. RNA9 corresponds to a stem loop derived from human immunodeficiency virus (HIV, an RNA retrovirus). The cells were cultured for 12 hours and supernatants were harvested. Murine IL-12 p40, IL-6, and TNF-α were measured by ELISA using matched antibody pairs from BD-Pharmingen according to the manufacturer's protocol.

human TLR7 = biological target: T1, human TLR7 (Homo sapiens, UniProt Q9NYK1); test: NF-κB luciferase reporter in 293 HEK cells transfected with human TLR7; assay type: cell-based; conditions: for human TLR7 response to modified guanosine ribonucleosides: FIG. 18
T1 construct: All full-length TLR fragments were cloned into pGEM-T Easy vector; expressed in transfected cells; host or cells: 293 HEK cells (ATCC), transient electroporation with pcDNA3.1(-) TLR expression plasmid
T1 sequence (Q9NYK1 27-1049): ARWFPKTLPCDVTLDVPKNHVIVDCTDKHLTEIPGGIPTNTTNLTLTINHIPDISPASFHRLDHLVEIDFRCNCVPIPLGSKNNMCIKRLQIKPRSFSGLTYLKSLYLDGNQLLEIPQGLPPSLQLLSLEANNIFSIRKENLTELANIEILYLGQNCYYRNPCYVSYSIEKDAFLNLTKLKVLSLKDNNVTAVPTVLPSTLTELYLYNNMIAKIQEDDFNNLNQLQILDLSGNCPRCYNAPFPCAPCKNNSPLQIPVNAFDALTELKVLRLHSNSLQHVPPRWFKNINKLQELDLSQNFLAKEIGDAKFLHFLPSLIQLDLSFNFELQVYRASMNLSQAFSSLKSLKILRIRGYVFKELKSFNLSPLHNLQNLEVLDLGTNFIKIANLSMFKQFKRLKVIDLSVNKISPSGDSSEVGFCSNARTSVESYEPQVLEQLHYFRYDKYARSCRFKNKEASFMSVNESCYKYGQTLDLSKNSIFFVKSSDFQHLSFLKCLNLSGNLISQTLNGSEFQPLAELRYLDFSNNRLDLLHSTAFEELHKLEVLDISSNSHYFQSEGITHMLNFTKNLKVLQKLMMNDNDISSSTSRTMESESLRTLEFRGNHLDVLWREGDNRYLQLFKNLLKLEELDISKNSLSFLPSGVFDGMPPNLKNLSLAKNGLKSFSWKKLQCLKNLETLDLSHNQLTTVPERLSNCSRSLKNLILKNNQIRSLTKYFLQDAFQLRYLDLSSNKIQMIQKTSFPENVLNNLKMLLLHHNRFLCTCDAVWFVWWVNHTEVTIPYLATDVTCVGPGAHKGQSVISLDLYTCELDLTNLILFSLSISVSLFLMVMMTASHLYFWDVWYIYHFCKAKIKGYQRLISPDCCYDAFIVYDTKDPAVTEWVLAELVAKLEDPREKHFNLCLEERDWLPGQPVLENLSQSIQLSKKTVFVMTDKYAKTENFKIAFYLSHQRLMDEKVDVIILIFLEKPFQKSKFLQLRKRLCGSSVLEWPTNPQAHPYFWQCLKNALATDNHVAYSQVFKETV
Method: FIG. 12 depicts the responsiveness of human TLR7 and human TLR8 to ribonucleosides. It was determined that the response by human PBMC to RNA or RVC was mediated by TLR7 or TLR8 and further that the response could be driven by ribonucleosides only. Human 293 cells were either mock-transfected or transfected with human TLR7 or human TLR8 and monitored for responsiveness to ribonucleosides. The open reading frames of human TLR7 (hTLR7) and human TLR8 (hTLR8) were amplified by PCR from a cDNA library of human PBMC using the following primers pairs: for TLR7, 5′-[…]-3′ (SEQ ID NO:15) and 5′-[…]-3′ (SEQ ID NO:16); and for TLR8, 5′-[…]-3′ (SEQ ID NO:17) and 5′-[…]-3′ (SEQ ID NO:18). The sequence information for primer selection was obtained from Genbank accession numbers AF240467 and AF245703. All full-length TLR fragments were cloned into pGEM-T Easy vector (Promega, Mannheim, Germany), excised with NotI, cloned into the expression vector pcDNA 3.1(−) (Invitrogen, Karlsruhe, Germany) and sequenced. Sequences of the coding region of hTLR7 and hTLR8 correspond to the accession numbers AF240467 (SEQ ID NO:25) and AF245703, respectively (SEQ ID NO:29).
For monitoring transient NF-κB activation, 3×10^6 293 HEK cells (ATCC, VA, USA) were electroporated at 200 volt and 960 μF with 1 μg TLR expression plasmid, 20 ng NF-κB luciferase reporter-plasmid and 14 μg of pcDNA3.1(−) plasmid as carrier in 400 μl RPMI medium supplemented with 25% fetal bovine serum (FCS). Cells were seeded at 10^5 cells per well and after over night culture stimulated with R-848 (denoted in FIG. 12 as X; commercially synthesized by GLSynthesis Inc., Worcester, Mass., USA), RVCs or ribonucleosides for a further 7 hours. Stimulated cells were lysed using reporter lysis buffer (Promega, Mannheim, Germany), and lysate was assayed for luciferase activity using a Berthold luminometer (Wildbad, Germany).

human PBMC [2] = test: Human PBMC TNF-α secretion, ELISA; assay type: cell-based; conditions: for TNF-α max / EC50: Table 4, DNA:RNA conjugates, human PBMC overnight, including DOTAP; for EC50: read-out: TNF-α EC50
Method: Human peripheral blood mononuclear cells (PBMCs) were isolated from healthy donors, plated at 3×10^5 cells/well, stimulated in vitro with various test and control immunostimulatory agents for 16 hours, and then analyzed by enzyme-linked immunosorbent assay (ELISA) using matched antibody pairs from BD-Pharmingen for secreted cytokines IL-12 p40 and TNF-α, performed according to the manufacturer's protocol. Also included were certain negative controls, including medium alone and DOTAP (10 μg/200 μl culture well; “Liposomes”) alone. The control immunostimulatory agents included the imidazoquinolone R-848 (2 μg/ml), lipopolysaccharide (LPS; 1 μg/ml), Pam3Cys (5 μg/ml), poly IC (50 μg/ml), and CpG DNA (50 μg/ml). These are reported ligands for TLR7, TLR4, TLR2, TLR3, and TLR9, respectively. Test immunostimulatory agents included the following RNA molecules, each at 50 μg/ml, with and without DOTAP (10 μg total “with Liposomes” and “without Liposomes”, respectively): GUGUUUAC alone; GUAGGCAC alone; GUGUUUAC in combination with GUAGGCAC; GUAGGA; GAAGGCAC; CUAGGCAC; CUCGGCAC; and CCCCCCCC. These RNA oligonucleotides each contained a phosphorothioate linkage between the penultimate and 3′ terminal nucleoside.
The experiments described in the preceding example were repeated with varied concentrations of RNA oligonucleotides in order to assess the dose-response behavior of human PBMCs to G,U-containing RNA oligonucleotides of the invention. A total of 10, 3 or 1 μg RNA was added to 10 μg DOTAP and then added to the 200 μl culture wells. After 16 hours IL-12 p40 and TNF-α ELISAs were performed as described in Example 1.
In order to investigate the possibility of using cholesteryl ester-modified RNA oligomer in place of RNA oligomer plus cationic lipid, RNA oligomer GUGUGUGU was prepared with (R 1058) and without (R 1006) a 3′ cholesteryl ester modification. These two RNA oligomers with and without DOTAP, were added over a range of concentrations to overnight cultures of human PBMC. Culture supernatants were harvested, and human TNF-α, IL-12 p40, and IFN-α were measured by ELISA using matched antibody pairs from BD-Pharmingen according to the manufacturer's protocol.
(§1) RNA oligomers GUGUGUGU, GUGUGUG, GUGUGU, GUGUG, GUGU, GUG, and GU, with and without DOTAP, were added over a range of concentrations to overnight cultures of human PBMC. Culture supernatants were harvested, and human TNF-α, IL-12 p40, and IFN-α were measured by ELISA using matched antibody pairs from BD-Pharmingen according to the manufacturer's protocol.
as §1, with “oligomers,” for “oligomers GUGUGUGU, GUGUGUG, GUGUGU, GUGUG, GUGU, GUG, and GU,”
(§2) Human PBMC were cultured overnight in the presence of added DNA:RNA conjugate, with and without DOTAP. Culture supernatants were harvested and human TNF-α, IL-6, IL-12 p40, IP-10, and IFN-α were measured by ELISA using matched antibody pairs from BD-Pharmingen according to the manufacturer's protocol.
Human PBMC were cultured overnight in the presence of various concentrations (1, 3, and 10 μg/ml) of tRNA obtained from wheat germ, bovine, yeast, and E. coli sources, added to the culture medium with and without DOTAP. Culture supernatants were harvested and human TNF-α and IL-12 p40 were measured by ELISA using matched antibody pairs from BD-Pharmingen according to the manufacturer's protocol. […] In addition, E. coli tRNA at 3 and 10 μg/ml induced minor amounts of both cytokines even without DOTAP. […]
FIG. 10 depicts the responsiveness of human PBMC to stringent response factor (SRF). SRF is produced by rapidly growing bacteria (in this case Listeria monocytogenes) in rich media until their late log phase. The bacteria were pelleted and resuspended in an equal volume of PBS for 24 h. The mixture is centrifuged to remove the bacteria. […]

human PBMC [3] = test: Human PBMC IL-6 secretion, ELISA; assay type: cell-based; conditions: Table 4, DNA:RNA conjugates; human PBMC overnight; including DOTAP
Method: as §2

human PBMC [4] = test: Human PBMC IP-10 secretion, ELISA; assay type: cell-based; conditions: Table 4, DNA:RNA conjugates; human PBMC overnight; including DOTAP
Method: as §2

Compound: 5′-TCCATGACGTTCCTGATGCT-3′ (CpG DNA, linkage chemistry not given here, further chemistry not given here) [ODN 1668]
- IL-12 p40 secretion by wild type murine macrophages [1]: significant amounts

Compound: Nc1nc2c(nc(Br)n2[C@@H]2O[C@H](CO)[C@@H](O)[C@H]2O)c(=O)[nH]1 [8-bromo-guanosine, reference compound]
- human TLR7 response to modified guanosine ribonucleosides (human TLR7): responded mildly

Compound: Nc1nc2c(ncn2[C@H]2C[C@H](O)[C@@H](CO)O2)c(=O)[nH]1 [deoxy form of guanosine]
- human TLR7 response to modified guanosine ribonucleosides (human TLR7): responded mildly

Compound: Nc1nc2c(ncn2[C@@H]2O[C@H](CO)[C@@H](O)[C@H]2O)c(=O)[nH]1 [guanosine]
- stimulation of PBMC to produce TNF (human PBMC [2]; Example 14, in the absence of vanadate): effective
- response of TLR7 transfectants (NF-κB luciferase) (human TLR7; FIG. 12, transient transfectants, 7 hours stimulation): responded
- responsiveness of TLR7 to ribonucleosides and mixtures of two (human TLR7; FIG. 13): responded best
- human TLR7 response to modified guanosine ribonucleosides (human TLR7): responsive

Compound: G*U*G*U*G*U*G*U*dT*dT*dT*dT*dT*dT (rG*rU*rG*rU*rG*rU*rG*rU*dT*dT*dT*dT*dT*dT) [R 1062]
- EC50 (human PBMC [3]): 0.4 µM
- IL-6 max (human PBMC [3]): 28000 pg/mL
- TNF-α max (human PBMC [2]): 80000 pg/mL
- EC50 (human PBMC [2]): 0.3 µM
- EC50 (human PBMC [4]): 0.1 µM
- IP-10 max (human PBMC [4]): 400 pg/mL

Compound: dG*dG*dG*dG_dG_G*U*G*U*G*U*G*U (dG*dG*dG*dGdGrG*rU*rG*rU*rG*rU*rG*rU) [R 1061]
- EC50 (human PBMC [3]): > 20 µM
- IL-6 max (human PBMC [3]): 10000 pg/mL
- TNF-α max (human PBMC [2]): 20000 pg/mL
- EC50 (human PBMC [2]): 4.3 µM
- EC50 (human PBMC [4]): 1.1 µM
- IP-10 max (human PBMC [4]): 180 pg/mL

Compound: dT*dT*dT*dT*dT*G*U*G*U*G*U*G*U (dT*dT*dT*dT*dT*rG*rU*rG*rU*rG*rU*rG*rU) [R 1063]
- EC50 (human PBMC [3]): 0.8 µM
- IL-6 max (human PBMC [3]): 28000 pg/mL
- TNF-α max (human PBMC [2]): 60000 pg/mL
- EC50 (human PBMC [2]): 0.3 µM
- EC50 (human PBMC [4]): 0.1 µM
- IP-10 max (human PBMC [4]): 250 pg/mL
